In PubChem BioAssay AID248 (DTP/NCI, 2004):
Where “and” joins values, the source holds several entries; their conditions need not be identical. Equal entries are not always repeated. Inconclusive results and toxic doses are left out. Cut-off read from the data, not from the text of the source: active = T/C of 150% or more; inactive = T/C below 125%.

Tested on: L1210 leukemia ip in BDF1 mice, survival T/C
Experiment: NCI In Vivo Anticancer Drug Screen. Data for tumor model L1210 Leukemia (intraperitoneal) in B6D2F1 (BDF1) mice
Conditions: endpoint: mean survival time, higher = longer survival
In short: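 Transplantable tumor model; survival measured in treated vs vehicle control mice. Value = treated/control.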

[1] = dose: 100.0 mg/kg/injection, schedule: Q01DX001 (ip), vehicle: saline
[2] = dose: 200.0 mg/kg/injection, schedule: Q01DX001 (ip), vehicle: saline
[3] = dose: 400.0 mg/kg/injection, schedule: Q01DX001 (ip), vehicle: saline

Measured: T/C

ClCc1cccc(CCl)c1
inactive: dose: 50.0 mg/kg/injection, schedule: Q01DX001 (ip), vehicle: saline 95 % of control | dose: 50.0 mg/kg/injection, schedule: Q01DX009 (ip), vehicle: saline sonified 103 % of control | [1] 95 % of control | dose: 100.0 mg/kg/injection, schedule: Q01DX009 (ip), vehicle: saline sonified 102 % of control | [2] 97 % of control | dose: 200.0 mg/kg/injection, schedule: Q01DX009 (ip), vehicle: saline sonified 103 % of control

CCC(OC(=O)Nc1ccc(S(=O)(=O)NC2CCCCC2)cc1)c1ccco1 (centres undefined)
inactive: [1] 94 % of control | [2] 88 % of control | [3] 91 % of control

CCSc1ccc2c(cc1=O)C(NC(C)=O)CCc1cc(OC)c(OC)c(OC)c1-2 (centres undefined)
inactive: dose: 25.0 mg/kg/injection, schedule: Q04DX002 (ip), vehicle: Klucel (hydroxypropylcellulose) (HPC) 105 % of control | dose: 50.0 mg/kg/injection, schedule: Q04DX002 (ip), vehicle: Klucel (hydroxypropylcellulose) (HPC) 102 % of control

CCN(CC)CCOC(=O)C(c1ccccc1)C1C=CCCC1 (centres undefined)
inactive: dose: 75.0 mg/kg/injection, schedule: Q01DX001 (ip), vehicle: saline 102 % of control | dose: 150.0 mg/kg/injection, schedule: Q01DX001 (ip), vehicle: saline 92 % of control

O=c1[nH]c(=S)[nH]cc1Cc1cccc2ccccc12
inactive: dose: 25.0 mg/kg/injection, schedule: Q01DX001 (ip), vehicle: Klucel (hydroxypropylcellulose) (HPC) 104 % of control | dose: 50.0 mg/kg/injection, schedule: Q01DX001 (ip), vehicle: Klucel (hydroxypropylcellulose) (HPC) 94 % of control | dose: 100.0 mg/kg/injection, schedule: Q01DX001 (ip), vehicle: Klucel (hydroxypropylcellulose) (HPC) 92 % of control

CCCC1=NNC(=O)C1(Br)Br
inactive: dose: 10.0 mg/kg/injection, schedule: Q01DX001 (ip), vehicle: carboxymethylcellulose (CMC) 97 % of control | dose: 20.0 mg/kg/injection, schedule: Q01DX001 (ip), vehicle: carboxymethylcellulose (CMC) 91 % of control | dose: 40.0 mg/kg/injection, schedule: Q01DX001 (ip), vehicle: carboxymethylcellulose (CMC) 92 % of control | dose: 80.0 mg/kg/injection, schedule: Q01DX001 (ip), vehicle: carboxymethylcellulose (CMC) 97 % of control

NC1=CC(=O)CCC1
inactive: [1] 103 % of control | [2] 100 % of control | [3] 97 % of control

CN(N)P(=O)(c1ccccc1)N(C)N
inactive: dose: 25.0 mg/kg/injection, schedule: Q01DX009 (ip), vehicle: saline 103 % of control | dose: 25.0 mg/kg/injection, schedule: Q04DX003 (ip), vehicle: saline 101 % of control | dose: 50.0 mg/kg/injection, schedule: Q01DX009 (ip), vehicle: saline 100 % of control | dose: 50.0 mg/kg/injection, schedule: Q04DX003 (ip), vehicle: saline 98 % of control | dose: 100.0 mg/kg/injection, schedule: Q04DX003 (ip), vehicle: saline 104 % of control and 105 % of control

CSc1nc(Cl)c(-c2ccccc2)c(N2CC2)n1
inactive: dose: 25.0 mg/kg/injection, schedule: Q01DX Z (ip), vehicle: methylcellulose (MC) 98 % of control | dose: 50.0 mg/kg/injection, schedule: Q01DX Z (ip), vehicle: methylcellulose (MC) 90 % of control

CB1N(c2ccccc2)B(C)N(c2ccccc2)B(C)N1c1ccccc1
inactive: dose: 100.0 mg/kg/injection, schedule: Q04DX003 (ip), vehicle: Klucel (hydroxypropylcellulose) (HPC) 103 % of control | dose: 200.0 mg/kg/injection, schedule: Q04DX003 (ip), vehicle: Klucel (hydroxypropylcellulose) (HPC) 93 % of control | dose: 400.0 mg/kg/injection, schedule: Q04DX003 (ip), vehicle: Klucel (hydroxypropylcellulose) (HPC) 97 % of control

CNC(=O)Oc1c(C)occc1=O
inactive: dose: 75.0 mg/kg/injection, schedule: Q01DX009 (ip), vehicle: other 100 % of control | dose: 75.0 mg/kg/injection, schedule: Q01DX009 (ip), vehicle: saline with Tween-80 103 % of control | [1] 106 % of control | dose: 135.0 mg/kg/injection, schedule: Q01DX009 (ip), vehicle: other 111 % of control | dose: 150.0 mg/kg/injection, schedule: Q01DX009 (ip), vehicle: other 104 % of control | dose: 150.0 mg/kg/injection, schedule: Q01DX009 (ip), vehicle: saline with Tween-80 111 % of control | [2] 101 % of control | dose: 200.0 mg/kg/injection, schedule: Q01DX009 (ip), vehicle: other 108 % of control | dose: 300.0 mg/kg/injection, schedule: Q01DX009 (ip), vehicle: other 116 % of control | dose: 300.0 mg/kg/injection, schedule: Q01DX009 (ip), vehicle: saline with Tween-80 106 % of control | [3] 105 % of control
